Here are results for seven molecules from patent US9181236B2, “2-spiro-substituted iminothiazines and their mono-and dioxides as bace inhibitors, compositions and their use” (Merck Sharp & Dohme Corp., priority 2011, dated 2015).

Test [1] addresses soluble human BACE1 catalytic domain (Homo sapiens (Human), UniProt P56817). Kind of test: BACE1 HTRF FRET Assay. Format: biochemical. To be noted: Ki calculated from IC50 using the Cheng-Prusoff equation.
Test [2] concerns the target purified human autoBACE-2 (Homo sapiens (Human), UniProt Q9Y5Z0). The test can be described thus: BACE-2 Assay (BACE-HTRF assay). It counts as biochemical. To be noted: Ki calculated from IC50 using the Cheng-Prusoff equation; read-out: BACE2 Ki. The procedure, abridged: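 Endpoint proteolysis of a QSY7/europium FRET peptide by purified human autoBACE-2, 5% DMSO final, read by time-resolved fluorescence at 620 nm after 320 nm excitation.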

purified human autoBACE-2, sequence (Q9Y5Z0 63-473 limits assumed): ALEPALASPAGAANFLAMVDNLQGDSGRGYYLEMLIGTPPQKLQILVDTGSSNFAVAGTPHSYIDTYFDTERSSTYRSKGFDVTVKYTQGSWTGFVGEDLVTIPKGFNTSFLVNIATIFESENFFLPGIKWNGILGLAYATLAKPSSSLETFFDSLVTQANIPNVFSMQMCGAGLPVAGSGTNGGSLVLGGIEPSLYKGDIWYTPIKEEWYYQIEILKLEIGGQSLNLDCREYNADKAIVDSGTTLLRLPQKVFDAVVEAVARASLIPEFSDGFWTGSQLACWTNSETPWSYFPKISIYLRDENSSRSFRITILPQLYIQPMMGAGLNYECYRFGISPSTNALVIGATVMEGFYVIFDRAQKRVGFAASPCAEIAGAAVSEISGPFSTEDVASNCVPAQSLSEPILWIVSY
soluble human BACE1 catalytic domain, sequence (P56817 75-416): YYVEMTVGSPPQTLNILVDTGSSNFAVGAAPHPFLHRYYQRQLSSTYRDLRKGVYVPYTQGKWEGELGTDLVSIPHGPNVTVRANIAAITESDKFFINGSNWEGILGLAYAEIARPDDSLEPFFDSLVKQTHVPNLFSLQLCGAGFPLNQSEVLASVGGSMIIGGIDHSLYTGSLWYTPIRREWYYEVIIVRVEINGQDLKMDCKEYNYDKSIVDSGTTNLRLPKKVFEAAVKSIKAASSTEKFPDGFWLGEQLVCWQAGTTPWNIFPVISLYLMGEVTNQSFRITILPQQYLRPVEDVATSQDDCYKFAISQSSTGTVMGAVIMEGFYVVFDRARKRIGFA

Consider `C[C@@]1(c2cc(N)ccc2F)CS(=O)(=O)C2(CCOCC2)C(=N)N1`, for which the values for the Ki in test [1] and in test [2] were 7020 nM and 3580 nM, respectively.

Take `COc1cccc2cc(-c3cc(Cl)c([C@]4(C)CS(=O)(=O)C5(CC5)C(=N)N4)s3)[nH]c12` [Example 64]: the Ki was 10 nM in test [1] and 1 nM in test [2].

As to `COc1cc(C#N)cc(-c2cc(Cl)c([C@]3(C)CS(=O)(=O)C4(CCOCC4)C(=N)N3)s2)c1` [Example 57], the Ki in test [1] was 161 nM; in test [2] it was < 20 nM.

On to `C[C@@]1(c2sc(-c3cncc(C#N)c3)cc2Cl)CS(=O)(=O)C2(CCCC2)C(=N)N1` [Example 42], for which the Ki in test [1] was 18.3 nM; in test [2], 3.4 nM.

With `C[C@@]1(c2cc(NC(=O)c3ccc(Cl)cn3)ccc2F)CS(=O)(=O)[C@]2(CCOC2)C(=N)N1` [Example 62c], the figures for the Ki in test [1] and in test [2] were 8.1 nM and 1.8 nM, respectively.

For `C[C@@]1(c2cc(NC(=O)c3cnc(C(F)(F)F)cn3)ccc2F)CS(=O)(=O)C2(CCCC2)C(=N)N1` [Example 16], the Ki is 13 nM in test [1] and < 20 nM in test [2].

Turning to `C[C@@]1(c2sc(-c3cccc(-c4nnco4)c3)cc2Cl)CS(=O)(=O)C2(CC2)C(=N)N1` [Example 65a], the values for the Ki in test [1] and in test [2] were 11 nM and < 50 nM, respectively.

In general, Ki refers to the equilibrium dissociation constant of an inhibitor or competing ligand from its target.
